Laboratory results: patent US20070015214A1, “Methods for identifying compounds for regulating muscle mass or function using prostanoid IP receptors” (The Procter & Gamble Company, priority 2005, published 2007)
Marks after values point to notes of the source that are not given here.

Test system: casting-induced atrophy of the tibialis anterior and medial gastrocnemius muscles
Test: mouse casting model of skeletal muscle atrophy
Type: in vivo
Details: fourteen days, casted right hind leg, male mice
Method: The role of the prostanoid IP receptor in vivo is investigated in the mouse casting model of skeletal muscle atrophy using the pharmacological agents carbaprostacyclin, ciprostene, beraprost and iloprost (Cayman Chemical Company, Ann Arbor, Mich.) which are selective agonists for the prostanoid IP receptor. Eight mice are used per treatment group in the study described. Following casting of the right hind leg, male mice are injected subcutaneously in the midscapular region once daily, with either carbaprostacyclin, ciprostene, beraprost, iloprost or vehicle control (phosphate buffered saline), for fourteen days at the daily delivered dose indicated. On day fourteen, the tibialis anterior and medial gastrocnemius muscles are removed and weighed to determine the degree of atrophy. Percent inhibition of atrophy is calculated using the following formula: [formula] Statistical significance of the results is determined using ANCOVA (Douglas C. Montgomery, Design and Analysis of Experiments, John Wiley and Sons, New York (2nd ed. 1984).

[1] = 0.3 mg/kg/d subcutaneously once daily
[2] = 1.0 mg/kg/d subcutaneously once daily
[3] = 3.0 mg/kg/d subcutaneously once daily

| SMILES | % inhibition of atrophy medial gastrocnemius muscle [1] | % inhibition of atrophy tibialis anterior muscle [1] | % inhibition of atrophy medial gastrocnemius muscle [2] | % inhibition of atrophy tibialis anterior muscle [2] | % inhibition of atrophy medial gastrocnemius muscle [3] | % inhibition of atrophy tibialis anterior muscle [3] |
| --- | --- | --- | --- | --- | --- | --- |
| CCCCC[C@H](O)/C=C/[C@H]1[C@H](O)C[C@]2(C)C/C(=C\CCCC(=O)O)C[C@H]12 [Ciprostene] | 25* % | 5% | 20% | 9% | 43* % | 25* % |
| CC#CCC(C)[C@H](O)/C=C/[C@@H]1[C@H]2c3cccc(CCCC(=O)O)c3O[C@H]2C[C@H]1O (mixture of isomers) [Beraprost] | 46* % | 28* % | 22% | 27* % | 28* % | 5% |
| CC#CCC(C)[C@H](O)/C=C/[C@@H]1[C@H]2C/C(=C/CCCC(=O)O)C[C@H]2C[C@H]1O (stereo partly drawn) [Iloprost] | 42* % | 18% | 36* % | 21* % | 31* % | 11% |
| CCCCC[C@H](O)/C=C/[C@@H]1[C@H]2C/C(=C/CCCC(=O)O)C[C@H]2C[C@H]1O [Carbaprostacyclin] | 1% | 0% | 24* % | 12% | 43* % | 8% |
